Assays:
pigweed = experiment: Test C postemergence; format: in vivo, Amaranthus retroflexus; conditions: for Plant response rating, Pigweed: Postemergence, scale 0 to 100 (0 no effect, 100 complete control)
Summary of the method: (§1)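 Plants were kept under greenhouse conditions for 13–15 days following spray. Pre-emergent application went to soil (loam–sand), post-emergent to foliage at 1–4 leaves. Evaluation: visual, percent control against untreated checks.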

corn [1] = experiment: Test A postemergence; format: in vivo, Zea mays
Summary of the method: (§2)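 Greenhouse pot test, loam/sand soil. Formulation: non-phytotoxic solvent mix plus surfactant. Pre: directed spray onto soil after sowing. Post: plants at 1–2 leaf, 2–10 cm. Rated visually vs untreated controls at ~10 d, 0 (no effect) to 100 (complete control).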

waterhemp = experiment: Test C postemergence; format: in vivo, Amaranthus rudis; conditions: for Plant response rating (0 to 100), Waterhemp: postemergence; for Plant response rating, Waterhemp: Postemergence, scale 0 to 100 (0 no effect, 100 complete control)
Summary of the method: as §1

giant foxtail [2] = experiment: Test C postemergence; format: in vivo, Setaria faberii; conditions: for Plant response rating (0 to 100), Foxtail, Giant: postemergence; for Plant response rating, Foxtail, Giant: Postemergence, scale 0 to 100 (0 no effect, 100 complete control)
Summary of the method: as §1

corn [3] = experiment: Test A preemergence; format: in vivo, Zea mays
Summary of the method: as §2

velvetleaf [4] = experiment: Test A preemergence; format: in vivo, Abutilon theophrasti
Summary of the method: as §2

large (Lg) crabgrass = experiment: Test A preemergence; format: in vivo, Digitaria sanguinalis
Summary of the method: as §2

barnyardgrass = experiment: Test A postemergence; format: in vivo, Echinochloa crus-galli
Summary of the method: as §2

corn [5] = experiment: Test C postemergence; format: in vivo, Zea mays; conditions: for Plant response rating (0 to 100), Corn: postemergence; for Plant response rating, Corn: Postemergence, scale 0 to 100 (0 no effect, 100 complete control)
Summary of the method: as §1

johnsongrass = experiment: Test C postemergence; format: in vivo, Sorghum halepense; conditions: for Plant response rating (0 to 100), Johnsongrass: postemergence; for Plant response rating, Johnsongrass: Postemergence, scale 0 to 100 (0 no effect, 100 complete control)
Summary of the method: as §1

morningglory [6] = experiment: Test A postemergence; format: in vivo, Ipomoea spp.
Summary of the method: as §2

giant foxtail [7] = experiment: Test A postemergence; format: in vivo, Setaria faberii
Summary of the method: as §2

Heteranthera limosa = experiment: Test B flooded paddy test; format: in vivo; conditions: Flood, 250 g ai/ha; 0 to 100 scale where 0 is no effect and 100 is complete control
Summary of the method: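 Evaluation is visual, against untreated controls, 13 to 15 days after treatment. Before treatment, plants reached the 2-leaf stage; pots were then flooded 3 cm deep, compound was added to the water, and that level was maintained. Ratings run 0 to 100, with 100 meaning complete control.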

velvetleaf [8] = experiment: Test C postemergence; format: in vivo, Abutilon theophrasti; conditions: for Plant response rating (0 to 100), Velvetleaf: postemergence; for Plant response rating, Velvetleaf: Postemergence, scale 0 to 100 (0 no effect, 100 complete control)
Summary of the method: as §1

morningglory [9] = experiment: Test C postemergence; format: in vivo, Ipomoea coccinea; conditions: for Plant response rating (0 to 100), Morningglory: postemergence; for Plant response rating, Morningglory: Postemergence, scale 0 to 100 (0 no effect, 100 complete control)
Summary of the method: as §1

oilseed rape = experiment: Test C postemergence; format: in vivo, Brassica napus; conditions: for Plant response rating (0 to 100), Oilseed Rape: postemergence; for Plant response rating, Oilseed Rape: Postemergence, scale 0 to 100 (0 no effect, 100 complete control)
Summary of the method: as §1

[10] = 125 g ai/ha, 0 to 100 scale where 0 is no effect and 100 is complete control
[11] = 500 g ai/ha, 0 to 100 scale, 0 no effect, 100 complete control
[12] = 500 g ai/ha, 0 to 100 scale, 0 no effect, 100 complete control, approx. 10 days

SMILES: N#Cc1cccc(Oc2ncc(Br)cn2)c1-n1cc(Br)cn1 [Compound 57]
- Plant response rating (0 to 100), Pigweed (pigweed; 250 g ai/ha, postemergence): 95
- Plant response rating, Pigweed (pigweed; 31 g ai/ha, 13 to 15 days): 65
- Plant response rating, Pigweed (pigweed; 62 g ai/ha): 85
- Plant response rating, Corn (corn [1]; [10]): 30
- Plant response rating, Corn (corn [1]; [11]): 90
- Plant response rating (0 to 100), Waterhemp (waterhemp; 125 g ai/ha): 80
- Plant response rating (0 to 100), Waterhemp (waterhemp; 250 g ai/ha): 90
- Plant response rating, Waterhemp (waterhemp; 31 g ai/ha, 13 to 15 days): 75
- Plant response rating, Waterhemp (waterhemp; 62 g ai/ha): 80
- Plant response rating (0 to 100), Foxtail, Giant (giant foxtail [2]; 125 g ai/ha): 15
- Plant response rating (0 to 100), Foxtail, Giant (giant foxtail [2]; 250 g ai/ha): 30
- Plant response rating, Foxtail, Giant (giant foxtail [2]; 31 g ai/ha, 13 to 15 days): 10
- Plant response rating, Foxtail, Giant (giant foxtail [2]; 62 g ai/ha): 10
- Plant response rating, Corn (corn [3]; [10]): 0
- Corn plant response rating (corn [3]; [12]): 70
- Plant response rating, Velvetleaf (velvetleaf [4]; [10]): 40
- Velvetleaf plant response rating (velvetleaf [4]; [12]): 100
- Plant response rating, Crabgrass, Large (large (Lg) crabgrass; [10]): 90
- Crabgrass, Large plant response rating (large (Lg) crabgrass; [12]): 100
- Plant response rating, Barnyardgrass (barnyardgrass; [10]): 90
- Plant response rating, Barnyardgrass (barnyardgrass; [11]): 100
- Plant response rating (0 to 100), Corn (corn [5]; 125 g ai/ha): 20
- Plant response rating (0 to 100), Corn (corn [5]; 250 g ai/ha): 20
- Plant response rating, Corn (corn [5]; 31 g ai/ha, 13 to 15 days): 10
- Plant response rating, Corn (corn [5]; 62 g ai/ha): 15
- Plant response rating (0 to 100), Johnsongrass (johnsongrass; 125 g ai/ha): 5
- Plant response rating (0 to 100), Johnsongrass (johnsongrass; 250 g ai/ha): 20
- Plant response rating, Johnsongrass (johnsongrass; 31 g ai/ha, 13 to 15 days): 5
- Plant response rating, Johnsongrass (johnsongrass; 62 g ai/ha): 5
- Plant response rating, Morningglory (morningglory [6]; [10]): 90
- Plant response rating, Morningglory (morningglory [6]; [11]): 80
- Plant response rating, Foxtail, Giant (giant foxtail [7]; [10]): 80
- Plant response rating, Foxtail, Giant (giant foxtail [7]; [11]): 100
- Plant response rating, Ducksalad (Heteranthera limosa): 60
- Plant response rating (0 to 100), Velvetleaf (velvetleaf [8]; 125 g ai/ha): 40
- Plant response rating (0 to 100), Velvetleaf (velvetleaf [8]; 250 g ai/ha): 60
- Plant response rating, Velvetleaf (velvetleaf [8]; 31 g ai/ha, 13 to 15 days): 25
- Plant response rating, Velvetleaf (velvetleaf [8]; 62 g ai/ha): 35
- Plant response rating (0 to 100), Morningglory (morningglory [9]; 125 g ai/ha): 85
- Plant response rating (0 to 100), Morningglory (morningglory [9]; 250 g ai/ha): 95
- Plant response rating, Morningglory (morningglory [9]; 31 g ai/ha, 13 to 15 days): 45
- Plant response rating, Morningglory (morningglory [9]; 62 g ai/ha): 80
- Plant response rating (0 to 100), Oilseed Rape (oilseed rape; 125 g ai/ha): 80
- Plant response rating (0 to 100), Oilseed Rape (oilseed rape; 250 g ai/ha): 85
- Plant response rating, Oilseed Rape (oilseed rape; 31 g ai/ha, 13 to 15 days): 30
- Plant response rating, Oilseed Rape (oilseed rape; 62 g ai/ha): 40

From US9695155B2, “Herbicidal substituted pyrimidinyloxy benzene compounds” (E. I. DU PONT DE NEMOURS AND COMPANY, priority 2013, dated 2017)
